For this test, the target named is T1, Tyrosine-protein phosphatase non-receptor type 1 (Homo sapiens, UniProt P18031).
T1 sequence (P18031 whole entry): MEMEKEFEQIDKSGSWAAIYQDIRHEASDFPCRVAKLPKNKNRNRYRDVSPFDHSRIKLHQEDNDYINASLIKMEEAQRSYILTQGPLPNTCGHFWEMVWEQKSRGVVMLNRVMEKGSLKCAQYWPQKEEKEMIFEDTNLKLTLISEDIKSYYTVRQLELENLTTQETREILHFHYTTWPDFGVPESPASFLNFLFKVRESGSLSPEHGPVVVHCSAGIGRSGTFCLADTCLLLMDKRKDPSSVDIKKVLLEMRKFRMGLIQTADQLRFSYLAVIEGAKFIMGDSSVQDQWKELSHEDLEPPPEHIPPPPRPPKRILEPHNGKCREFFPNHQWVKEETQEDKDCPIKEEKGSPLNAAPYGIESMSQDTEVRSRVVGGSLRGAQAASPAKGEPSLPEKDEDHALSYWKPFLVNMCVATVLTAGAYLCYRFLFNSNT
Nature of the test: Binding affinity to PTP1B.

The structures appear in SMILES notation.

As for `O=C(O)C(=O)Nc1sc2c(c1C(=O)O)CCC1(C2)OCCO1`, the affinity corresponds to a Ki of 2.2 µM.

For the origin of these results see ChEMBL document CHEMBL1141964, “Molecular docking and 3D-QSAR on 2-(oxalylamino) benzoic acid and its analogues as protein tyrosine phosphatase 1B inhibitors” (Bioorg Med Chem Lett, 2005).
